Results taken from patent publication US6369059B1, “Tetracyclic derivatives, process of preparation and use” (ICOS Corporation, priority 1994, dated 2002).
pEC50, pIC50: −log10 of the molar value.

Assays:
[1] = target: T1, human recombinant PDE V (Homo sapiens, UniProt O76074); test: Inhibitory effect on cGMP-PDE (one-step assay adapted from Wells et al.); format: biochemical; details: 0.15 μM 8-[H3]-cGMP, 30 minutes incubation, 2% DMSO
T1 construct: purchased ICOS, Seattle USA
Method: The enzyme used was a human recombinant PDE V (ICOS, Seattle USA).
Compounds of the invention were dissolved in DMSO finally present at 2% in the assay.

[2] = test system: Rat aortic smooth muscle cells (RSMC); test: cGMP level measurements in ANF-stimulated cells; format: cell-based; details: 30 minutes at 37° C. with compound, then ANF (100 nM) for 10 minutes, c-GMP by scintillation proximity immunoassay
Method: Rat aortic smooth muscle cells (RSMC) prepared according to Chamley et al. in Cell Tissue Res. 177 503-522 (1977) were used between the 10th and 25th passage at confluence in 24-well culture dishes. Culture media was aspirated and replaced with PBS (0.5 ml) containing the compound tested at the appropriate concentration. After 30 minutes at 37° C., particulates guanylate cyclase was stimulated by addition of ANF (100 nM) for 10 minutes. At the end of incubation, the medium was withdrawn and two extractions were performed by addition of 65% ethanol (0.25 ml). The two ethanolic extracts were pooled and evaporated until dryness, using a Speed-vac system. c-GMP was measured after acetylation by scintillation proximity immunoassay ([…]).

Row | pIC50 [1] | pEC50 [2] | melting point | SMILES
1 | 7.70 | 6.10 | 258 °C | CN1CC(=O)N2C(Cc3c([nH]c4ccccc34)C2c2ccc(Br)s2)C1=O (stereo not drawn) [Example 52, Cis-2,3,6,7,12,12a-Hexahydro-65-bromo-2-thienyl)-2-methyl-pyrazino[2′,1′:6,1]pyrido[3,4-b]indole-1,4-dione]
2 | – | – | 284 °C | O=C1[C@@H]2Cc3c([nH]c4ccccc34)[C@H](c3ccccc3)N2C(=O)CN1Cc1ccccc1 (relative stereo) [Example 46, Trans-2,3,6,7,12,12a-Hexahydro-2-benzyl-6-phenyl-pyrazino[2′,1′:6,1]pyrido[3,4-b]indole-1,4-dione]
3 | – | – | 312 °C | CN1CC(=O)N2[C@@H](c3cccnc3)c3[nH]c4ccccc4c3C[C@@H]2C1=O (relative stereo) [Example 77, Cis-2,3,6,7,12,12a-Hexahydro-2-methyl-6-(3-pyridyl)-pyrazino[2′,1′:6,1]pyrido[3,4-b]indole-1,4-dione]
4 | – | – | 260 to 262 °C | COc1ccc([C@@H]2c3[nH]c4ccccc4c3C[C@@H]3C(=O)N(C4CCCC4)CC(=O)N23)cc1Cl [Example 88, (6R,12aR)-2,3,6,7,12,12a-Hexahydro-2-cyclopentyl6-(3-chloro-4-methoxyphenyl)-pyrazino[2′,1′:6,1]pyrido[3,4-b]indole-1,4-dione]
5 | 8.00 | 6.82 | 273 to 274 °C | O=C1[C@H]2Cc3c([nH]c4ccccc34)[C@H](c3ccc4c(c3)OCO4)N2C(=O)CN1Cc1ccncc1 (relative stereo) [Example 12, Cis-2,3,6,7,12,12a-Hexahydro-2-(4-pyridylmethyl)-6-(3,4-methylenedioxyphenyl)-pyrazino[2′,1′:6,1]pyrido[3,4-b]indole-1,4-dione]
6 | – | – | 243 to 245 °C | CCCCN1CC(=O)N2[C@@H](c3ccccc3)c3[nH]c4ccccc4c3C[C@@H]2C1=O (relative stereo) [Example 44, Cis-2,3,6,7,12,12a-Hexahydro-2-butyl-6-phenyl-pyrazino[2′,1′:6,1]pyrido[3,4-b]indole-1,4-dione]
7 | – | – | 219 to 220 °C | C[C@@H]1C(=O)N2[C@H](c3ccc4c(c3)OCO4)c3[nH]c4ccccc4c3C[C@@H]2C(=O)N1C [Example 116, (3R,6R,12aR)-2,3,6,7,12,12a-Hexahydro-2,3-dimethyl-6-(3,4-methylenedioxyphenyl)-pyrazino[2′,1′:6,1]pyrido[3,4-b]indole-1,4-dione]
8 | – | – | 227 to 228 °C | CC(C)CN1CC(=O)N2[C@H](c3ccc4c(c3)OCO4)c3[nH]c4ccccc4c3C[C@@H]2C1=O [Example 81, (6R,12aR)-2,3,6,7,12,12a-Hexahydro-2-isobutyl-6-(3,4-methylenedioxyphenyl)-pyrazino[2′,1′:6,1]pyrido[3,4-b]indole-1,4-dione]
9 | > 8.00 | 6.40 | 302 to 304 °C | O=C1[C@H]2Cc3c([nH]c4ccccc34)[C@@H](c3ccc4c(c3)OCO4)N2C(=O)[C@@H]2CCCN12 [Example 115, (5aR, 12R,14aS)-1,2,3,5,6,11,12,14a-Octahydro-12-(3,4-methylenedioxyphenyl)-pyrrolo[1″,2″:4′,5′]pyrazino[2′,1′:6,1]pyrido[3,4-b]indole-5-1,4-dione]
10 | – | – | 264 to 265 °C | COc1cc([C@H]2c3[nH]c4ccccc4c3C[C@@H]3C(=O)N(C)CC(=O)N23)ccc1O (relative stereo) [Example 70, Cis-2,3,6,7,12,12a-Hexahydro-6-(4-hydroxy-3-methoxyphenyl)-2-methyl-pyrazino[2′,1′:6,1]pyrido[3,4-b]indole-1,4-dione]
11 | – | – | 182 °C | CCCCN1CC(=O)N2[C@@H](c3ccc([N+](=O)[O-])cc3)c3[nH]c4ccccc4c3C[C@@H]2C1=O (relative stereo) [Example 75, Cis-2,3,6,7,12,12a-Hexahydro-2-butyl-6-(4-nitrophenyl)-pyrazino[2′,1′:6,1]pyrido[3,4-b]indole-1,4-dione]
12 | – | – | 192 °C | CCCCN1CC(=O)N2[C@@H](c3ccc(N)cc3)c3[nH]c4ccccc4c3C[C@@H]2C1=O (relative stereo) [Example 98, Cis-2,3,6,7,12,12a-Hexahydro-6-(4-aminophenyl)-2-butyl-pyrazino[2′,1′:6,1]pyrido[3,4-b]indole-1,4-dione]
13 | – | – | 285 to 286 °C | O=C1[C@H]2Cc3c([nH]c4ccccc34)[C@H](c3ccc4c(c3)OCO4)N2C(=O)CN1Cc1ccccn1 (relative stereo) [Example 10, Cis-2,3,6,7,12,12a-Hexahydro-2-(2-pyridylmethyl)-6-(3,4-methylenedioxyphenyl)-pyrazino[2′,1′:6,1]pyrido[3,4-b]indole-1,4-dione]
14 | – | – | > 260 °C | CN1CC(=O)N2[C@@H](c3ccc(Cl)c(Cl)c3)c3[nH]c4ccccc4c3C[C@@H]2C1=O (relative stereo) [Example 43, Cis-2,3,6,7,12,12a-Hexahydro-6-(3,4-dichlorophenyl)-2-methyl-pyrazino[2′,1′:6,1]pyrido[3,4-b]indole-1,4-dione]
15 | – | – | 252 °C | O=C1[C@H]2Cc3c([nH]c4ccccc34)[C@H](c3ccc(Br)s3)N2C(=O)CN1C1CCCC1 (relative stereo) [Example 55, Cis-2,3,6,7,12,12a-Hexahydro-6-(5-bromo-2-thienyl)-2-cyclopentyl-pyrazino[2′,1′:6,1]pyrido[3,4-b]indole-1,4-dione]
16 | – | – | 254 °C | CCc1ccc([C@H]2c3[nH]c4ccccc4c3C[C@@H]3C(=O)N(C)CC(=O)N23)cc1 (relative stereo) [Example 112, Cis-2,3,6,7,12,12a-Hexahydro-6-(4-ethylphenyl)-2-methyl-pyrazino[2′,1′:6,1]pyrido[3,4-b]indole-1,4-dione]
17 | – | – | 224 to 226 °C | COc1ccc(CN2CC(=O)N3[C@H](c4ccc5c(c4)OCO5)c4[nH]c5ccccc5c4C[C@@H]3C2=O)cc1OC [Example 97, (6R,12aR)-2,3,6,7,12,12a-Hexahydro-2-(3,4-dimethoxybenzyl)-6-(3,4-methylenedioxyphenyl)-pyrazino[2′,1′:6,1]pyrido[3,4-b]indole-1,4-dione]
18 | – | – | 270 °C | O=C1[C@H]2Cc3c([nH]c4ccccc34)[C@H](c3ccc4c(c3)OCO4)N2C(=O)CN1C1CCCC1 (relative stereo) [Example 21, Cis-2,3,6,7,12,12a-Hexahydro-2-cyclopentyl-6-(3,4-methylenedioxyphenyl)-pyrazino[2′,1′:6,1]pyrido[3,4-b]indole-1,4-dione]
19 | – | – | 179 to 180 °C | CN1CC(=O)N2[C@@H](c3ccc(O)cc3)c3[nH]c4ccccc4c3C[C@@H]2C1=O (relative stereo) [Example 68, Cis-2,3,6,7,12,12a-Hexahydro-2-methyl-6-(4-hydroxyphenyl)-pyrazino[2′,1′:6,1]pyrido[3,4-b]indole-1,4-dione]
20 | – | – | 217 to 218 °C | O=C1[C@H]2Cc3c([nH]c4ccccc34)[C@H](c3ccc4c(c3)OCO4)N2C(=O)CN1CC1CC1 (relative stereo) [Example 20, Cis-2,3,6,7,12,12a-Hexahydro-2-cyclopropylmethyl-6-(3,4-methylenedioxyphenyl)-pyrazino[2′,1′:6,1]pyrido[3,4-b]indole-1,4-dione]
21 | – | – | 270 to 271 °C | CCCN1CC(=O)N2[C@@H](c3ccc4c(c3)OCO4)c3[nH]c4ccccc4c3C[C@@H]2C1=O (relative stereo) [Example 15, Cis-2,3,6,7,12,12a-Hexahydro-6-(3,4-methylenedioxyphenyl)-2-propyl-pyrazino[2′,1′:6,1]pyrido[3,4-b]indole-1,4-dione]
22 | – | – | 277 °C | CCN1CC(=O)N2[C@H](c3ccc(OC)cc3)c3[nH]c4ccccc4c3C[C@@H]2C1=O [Example 108, (6R,12aR)-2,3,6,7,12,12a-Hexahydro-2-ethyl-6-(4-methoxyphenyl)-pyrazino[2′,1′:6,1]pyrido[3,4-b]indole-1,4-dione]
23 | – | – | 130 °C | CCc1ccc([C@H]2c3[nH]c4ccccc4c3C[C@@H]3C(=O)N(C(C)C)CC(=O)N23)cc1 (relative stereo) [Example 72, Cis-2,3,6,7,12,12a-Hexahydro-6-(4-ethylphenyl)-2-isopropyl-pyrazino[2′,1′:6,1]pyrido[3,4-b]indole-1,4-dione]
24 | – | – | 246 °C | CCCCN1CC(=O)N2[C@@H](c3ccc(C#N)cc3)c3[nH]c4ccccc4c3C[C@@H]2C1=O (relative stereo) [Example 71, Cis-2,3,6,7,12,12a-Hexahydro-2-butyl-6-(4cyanophenyl)-pyrazino[2′,1′:6,1]pyrido[3,4-b]indole-1,4-dione]
25 | – | – | > 260 °C | Cc1cccc([C@H]2c3[nH]c4ccccc4c3C[C@@H]3C(=O)N(C)CC(=O)N23)c1 (relative stereo) [Example 65, Cis-2,3,6,7,12,12a-Hexahydro-2-methyl-6-(3-methylphenyl)-pyrazino[2′,1′:6,1]pyrido[3,4-b]indole-1,4-dione]
26 | – | – | 164 to 166 °C | CCCCN1CC(=O)N2[C@@H](c3ccc(Cl)cc3)c3[nH]c4ccccc4c3C[C@@H]2C1=O (relative stereo) [Example 42, Cis-2,3,6,7,12,12a-Hexahydro-2-butyl-6-(4-chlorophenyl)-pyrazino[2′,1′:6,1]pyrido[3,4-b]indole-1,4-dione]
